Data as given in patent US20120238532A1, “TREATMENT OF HUMAN OSTEOSARCOMA” (CEDARS-SINAI MEDICAL CENTER, priority 2009, published 2012).

Legend:
MG-63 cells [1] = assay: MTT assay, MG-63 (dose-response, pulse-exposure, combination); assay type: cell-based, human; conditions: Homo sapiens, MTT, 48 hours of exposure, read-out: ED50 (the source's name)
Procedure: 7 human OS cell lines (U2OS, G292, MG-63, HT-161, HOS, SAOS-2, and SJSA) were used in the study. Each cell line except HT-161 was obtained from the American Type Culture Collection (ATCC, Rockville, Md.). HT-161 was obtained from Dr. Emil Bogenmann (13). All cell lines were tested and authenticated prior to use according to cell line verification test recommendations by ATCC. OS cell lines were maintained in DMEM medium (Mediatech Inc., Herndon, Va.) supplemented with 10% fetal bovine serum (FBS; Atlanta Biological, Lawrenceville, Ga.) in a humidified incubator at 37° C. supplied with 5% CO2. Only the cells in exponential growth phase were used in the study.
Cell growth and survival were measured by 3-(4,5-dimethylthiazol-2-yl)-2,5-diphenyltetrazolium bromide (MTT) assay. […] After 48 hours of incubation, 10 μl of 5 mg/ml MTT solution (Sigma-Aldrich, St. Louis, Mo.) was added to each well and incubated further for 2 hours. […] For pulse-exposure experiments, MG-63 and SAOS-2 cells were seeded in 96-well plates and exposed to CuB at their ED50. After 2, 9, and 20 hours of exposure, cells were washed twice with PBS and incubated further in CuB-free media. Cell growth was checked by MTT assay at 24, 48, and 72 hours.
Calcusyn 2.0 (Biosoft, Ferguson, Mo.) was used for CI analysis.

MG-63 cells [2] = assay: Cell cycle analysis (PI, FACS), MG-63; assay type: cell-based, human; conditions: alone at ED50 (50 nM)
Procedure: (§1) Cells were harvested and fixed with 70% ethanol at regular time intervals. Fixed cells were stained with propidium iodide (PI) for flow cytometry analysis using BD FACScan (BD Biosciences, San Jose, Calif.). Distribution of cell cycle was analyzed by ModFit LT V2.0 software (Verity Software House, Topsham, Me.). […] After 24, 48, and 72 hours of exposure, cells were harvested and stained with PI and fluorescein isothiocyanate (FITC) using Annexin V-FITC apoptosis detection kit (BD Biosciences) according to the manufacturer's protocol. Cells were subjected to flow cytometry analysis within one hour of staining.

MG-63 cells [3] = assay: Annexin V-FITC apoptosis assay, MG-63; assay type: cell-based, human; conditions: at ED50, 72 hours of exposure
Procedure: as §1

MG-63 xenografts [4] = assay: Growth of MG-63 xenografts in athymic nude mice; assay type: in vivo; conditions: LD-MTX 150 mg/kg, single agent
Procedure: All animal experiments strictly followed the guidelines of Cedars-Sinai Medical Center and the National Institute of Health (NIH). Female nu/nu athymic nude mice (5-6 weeks old; average weight 21 g; specific pathogen-free) from Harlan Laboratories (Indianapolis, Ind.) were maintained in pathogen-free condition with sterilized chow and water. 5×10^6 cells of MG-63 cells were mixed with 200 μl of Matrigel solution (BD Biosciences) per injection, and the mixture was injected subcutaneously on the upper flanks of nude mice. After 24 hours, tumor size was measured, and any outliers were ruled out by one-way analysis of variance (ANOVA) test. […] The conversion was made using dose translation formula by Reagan-Shaw et al., (15). […] Body weights were monitored every 2 days. Tumor size was measured every 2 days, and the tumor volume was calculated using the following formula: A (length)×B (width)×C (height)×0.5236 (16). The experiment was stopped at day 35, and all mice were sacrificed. The presence of metastatic spread was examined macroscopically at the time of autopsy followed by histological examination. At least two tumors from each group were snap-frozen in liquid nitrogen for Western blotting.

[5] = Body weight and side-effects during xenograft treatment; assay type: in vivo, mice; conditions: LD-MTX 150 mg/kg
Procedure: All animal experiments strictly followed the guidelines of Cedars-Sinai Medical Center and the National Institute of Health (NIH). Female nu/nu athymic nude mice (5-6 weeks old; average weight 21 g; specific pathogen-free) from Harlan Laboratories (Indianapolis, Ind.) were maintained in pathogen-free condition with sterilized chow and water. 5×10^6 cells of MG-63 cells were mixed with 200 μl of Matrigel solution (BD Biosciences) per injection, and the mixture was injected subcutaneously on the upper flanks of nude mice. After 24 hours, tumor size was measured, and any outliers were ruled out by one-way analysis of variance (ANOVA) test. […] The dose of LD-MTX was the murine equivalent of the human dose of LD-MTX. The conversion was made using dose translation formula by Reagan-Shaw et al., (15). […] Body weights were monitored every 2 days. Tumor size was measured every 2 days, and the tumor volume was calculated using the following formula: A (length)×B (width)×C (height)×0.5236 (16). The experiment was stopped at day 35, and all mice were sacrificed. The presence of metastatic spread was examined macroscopically at the time of autopsy followed by histological examination. At least two tumors from each group were snap-frozen in liquid nitrogen for Western blotting.

MG-63 xenografts [6] = assay: Immunohistochemistry of xenografts (HE, Ki-67, TUNEL); assay type: in vivo, mice; conditions: LD-MTX 150 mg/kg; day 35
From the text: (§2) At autopsy, tumors and internal organs including liver, spleen, kidneys were excised, weighed, and then fixed in 10% PBS-buffered formalin and maintained in 70% ethanol. For IHC, fixed tumors and organs were embedded in paraplast (Oxford Labware, St. Louis, Mo.), cut in 6 μm thick sections, and stained with hematoxylin and eosin (HE) for histopathological examination.
For Ki-67 proliferation assay, tumor sections were deparaffinized with xylene and rehydrated through graded ethanol. Endogenous peroxidase activity was blocked with 3% hydrogen peroxide in methanol. […] After incubation, tumor sections were stained with diaminobenzidine (DAB) and counterstained with hematoxylin. Terminal deoxynucleotidyl transferase dUTP nick end labeling (TUNEL) apoptosis assay was performed using ApopTaq Plus Peroxidase In Situ Apoptosis Kit (Millipore) according to the manufacturer's protocol. Percent positive cells in representative microscopic fields were counted using ImageJ (17).

Organ weight in mice = assay type: in vivo; conditions: LD-MTX 150 mg/kg; day 35
From the text: as §2

Blood counts in mice = assay type: in vivo; conditions: LD-MTX 150 mg/kg; day 35
Procedure: (§3) Whole blood samples were obtained by submandibular bleeding and serum samples were harvested with serum separator tubes (BD Biosciences). Blood count and serum chemistry results were obtained by the Hemagen Analyst Benchtop Chemistry System (Hemagen Diagnostics, Inc. Columbia, Md.). Colony-forming cell (CFC) assays were performed as previously described (18).

Serum chemistry in mice = assay type: in vivo; conditions: LD-MTX 150 mg/kg; day 35
Procedure: as §3

human OS cells = conditions: LD-MTX alone; xenograft studies using murine models (refs 24, 37); cited from earlier work
[7] = tested on: clonogenic hematopoietic cells; assay: Colony-forming cell (CFC) assays of bone marrow; conditions: LD-MTX 150 mg/kg; day 35; 2 × 10^4 cells/well
Procedure: as §3

- Kidney organ weight (Organ weight in mice): 345 ± 1 mg
- Liver organ weight (Organ weight in mice): 1120 ± 21 mg
- Spleen organ weight (Organ weight in mice): 135 ± 7 mg
- Basophils (Blood counts in mice): 0.00 ± 0.00 K/μl
- Eosinophils (Blood counts in mice): 0.00 ± 0.00 K/μl
- Lymphocytes (Blood counts in mice): 4.05 ± 0.58 K/μl
- Monocytes (Blood counts in mice): 0.17 ± 0.04 K/μl
- Neutrophills (Blood counts in mice): 0.56 ± 0.42 K/μl
- RBCs (Blood counts in mice): 7.69 ± 0.16 M/μl
- WBCs (Blood counts in mice): 4.80 ± 0.99 K/μl
- CK (Serum chemistry in mice): 183.0 ± 140 U/l
- bilirubin (Serum chemistry in mice): 0.12 ± 0.00 mg/dL
- cholesterol (Serum chemistry in mice): 148.5 ± 24.7 mg/dL
- creatine (Serum chemistry in mice): 0.39 ± 0.21 mg/dL
- globulin (Serum chemistry in mice): 1.3 ± 0.4 g/dL
- total protein (Serum chemistry in mice): 4.6 ± 0.7 g/dL
- uric acid (Serum chemistry in mice): 4.7 ± 0.8 mg/dL
- BFU-E, number of colonies [7]: 7.1 ± 0.8
- CFU-GEMM, number of colonies [7]: 3.4 ± 0.5
- CFU-GM, number of colonies [7]: 64.6 ± 3.6
SMILES: CN(Cc1cnc2nc(N)nc(N)c2n1)c1ccc(C(=O)N[C@@H](CCC(=O)O)C(=O)O)cc1 [MTX, methotrexate, reference compound]
- EC50 (MG-63 cells [1]): 50 nM
- earliest sign of S-phase arrest (MG-63 cells [2]): 48 h
- apoptotic cells (MG-63 cells [3]): 30%
- tumor volume (MG-63 xenografts [4]): allowed the tumor volume to increase slightly from its original size
- mice with sluggish movements, occasional diarrhea, and a patchy skin rash [5]: 60%
- body weight loss ([5]; some mice, 48 hours after MTX injection): 10%
- HE-stained tumors (MG-63 xenografts [6]): less number of blood vessels
- growth inhibition of human OS cells (human OS cells): < 20%
